Counter-ions that a name gives are not always drawn. Like-named read-outs stand apart in the source and are kept apart here.
Columns and labels:
[1] = test system: A/Brisbane/59/2007 (H1N1); assay: microbe, parasite or virus in culture; conditions: Influenza A virus, H1N1, MDCK, 72 h, read-out: EC50 against A/Brisbane/59/2007 (H1N1)
[2] = test system: A/Puerto Rico/8/1934 (H1N1); assay: microbe, parasite or virus in culture; conditions: Influenza A virus, H1N1, MDCK, 72 h, read-out: EC50 against A/Puerto Rico/8/1934 (H1N1)
[3] = test system: A/Hong Kong/8/1968 (H3N2); assay: microbe, parasite or virus in culture; conditions: Influenza A virus, H3N2, MDCK, 72 h, read-out: EC50 against A/Hong Kong/8/1968 (H3N2)
[4] = test system: A/Brisbane/59/2007 (H1N1)
[5] = test system: A/Victoria/361/2011-like (H3N2); assay: microbe, parasite or virus in culture; conditions: Influenza A virus, H3N2, MDCK, 72 h, read-out: EC50 against A/Victoria/361/2011-like (H3N2)
[6] = test system: A/Hong Kong/8/1968 (H3N2)
A/Seoul/11/1988 (H3N2) [7] = assay: microbe, parasite or virus in culture; conditions: Influenza A virus, H3N2, MDCK, 72 h, read-out: EC50 against A/Seoul/11/1988 (H3N2)
[8] = test system: A/Brisbane/10/2007 (H3N2); assay: microbe, parasite or virus in culture; conditions: Influenza A virus, H3N2, MDCK, 72 h, read-out: EC50 against A/Brisbane/10/2007 (H3N2)
B/Lee/40 [9] = assay: microbe, parasite or virus in culture; conditions: Influenza B virus, MDCK, 72 h, read-out: EC50 against B/Lee/40
B/Brisbane/60/2008 [10] = assay: microbe, parasite or virus in culture; conditions: Influenza B virus, MDCK, 72 h, read-out: EC50 against B/Brisbane/60/2008
[11] = Cytotoxicity to mock-infected MDCK cells (MTT); conditions: dog
A/Perth/16/2009 (H3N2) [12] = assay: microbe, parasite or virus in culture; conditions: Influenza A virus, H3N2, MDCK, 72 h, read-out: EC50 against A/Perth/16/2009 (H3N2)
[13] = test system: A/California/7/2009 (H1N1); assay: microbe, parasite or virus in culture; conditions: Influenza A virus, H1N1, MDCK, 72 h, read-out: EC50 against A/California/7/2009 (H1N1)
[14] = test system: A/California/7/2009 (H1N1)
[15] = test system: A/Puerto Rico/8/1934 (H1N1)
in vitro = conditions: dog
[16] = test system: PR8 virus (viral proteins NP, HA, M1); type: cell-based, influenza A virus
A/Seoul/11/1988 (H3N2) [17] = test system: A/Seoul/11/1988 (H3N2)
[18] = test system: influenza A viruses (PR8 and HK); assay: microbe, parasite or virus in culture; conditions: PR8, MDCK, read-out: viability of infected MDCK cells
influenza B strain (Lee) = assay: Chemical library screen, CPE reduction assay, influenza B; type: cell-based, influenza B virus; conditions: 20 µM
A/Perth/16/2009 (H3N2) [19] = test system: A/Perth/16/2009 (H3N2)
B/Lee/40 [20] = test system: B/Lee/40
[21] = test system: A/Victoria/361/2011-like (H3N2)
[22] = test system: A/Brisbane/10/2007 (H3N2)
B/Brisbane/60/2008 [23] = test system: B/Brisbane/60/2008
[24] = […], nylidrin 100 μM, OSV-C 10 μM, RBV 100 μM

Compound | EC50 [1] [µM] | EC50 [2] [µM] | EC50 [3] [µM] | S.I. (CC50/EC50), A/Brisbane/59/2007 (H1N1) ([4]; MDCK cells) | EC50 [5] [µM] | S.I. (CC50/EC50), A/Hong Kong/8/1968 (H3N2) [6] | EC50 (A/Seoul/11/1988 (H3N2) [7]) [µM] | EC50 [8] [µM] | EC50 (B/Lee/40 [9]) [µM] | EC50 (B/Brisbane/60/2008 [10]) [µM] | CC50 at 3 days [11] [µM] | EC50 (A/Perth/16/2009 (H3N2) [12]) [µM] | EC50 [13] [µM] | S.I. (CC50/EC50), A/California/7/2009 (H1N1) ([14]; MDCK cells) | S.I. (CC50/EC50), A/Puerto Rico/8/1934 (H1N1) ([15]; MDCK cells) | further results
NC12CC3CC(CC(C3)C1)C2 [AMT, amantadine hydrochloride] | 1.2 ± 0.4 | > 100 | 0.8 ± 0.1 | (>750) | > 100 | (>1200) | 0.3 ± 0.1 | > 100 | > 100 | > 100 | > 900 | > 100 | > 100 | – | – | –
CN(C)C(=O)Oc1cc(OC(=O)N(C)C)cc(C(O)CNC(C)(C)C)c1 (centres unmarked) [Bambuterol, bambuterol] | – | > 100 | > 100 | – | – | – | – | – | > 100 | – | > 900 | – | – | – | – | –
CC(C)(C)NCC(O)c1cc(Cl)c(N)c(Cl)c1 (centres unmarked) [Clenbuterol, clenbuterol] | 12.9 ± 0.3 | 9.4 ± 4.6 | > 100 | (>69.8) | > 100 | – | > 100 | > 100 | > 100 | > 100 | – | > 100 | 13.7 ± 3.6 | (>65.9) | (>96.3) | CC50 (in vitro): > 900 µM
OC(CN1CCC(Cc2ccc(F)cc2)CC1)c1ccc(Cl)cc1 (centres unmarked) [Eliprodil, eliprodil] | 53.1 ± 0.3 | > 100 | > 44 | (>16.9) | > 100 | (>15.5) | > 100 | > 100 | > 100 | > 100 | > 900 | > 100 | > 100 | – | – | EC50 ([6]; read-out: EC50 against A/Hong Kong/8/1968 (H3N2)): 58.1 ± 6.4 µM
CC(Cc1ccc(O)cc1)NCC(O)c1cc(O)cc(O)c1 (centres unmarked) [Fenoterol, fenoterol] | – | > 100 | > 100 | – | – | – | – | – | > 100 | – | – | – | – | – | – | CC50 (in vitro): > 900 µM
CC(C(O)c1ccc(O)cc1)N1CCC(Cc2ccccc2)CC1 (centres unmarked) [Ifenprodil, ifenprodil] | 5.1 ± 0.3 | 6.6 ± 0.4 | 16.9 ± 3 | (96.7) | > 100 | (29.0) | 37.9 ± 7.7 | > 100 | > 100 | > 100 | 488.2 ± 0.5 | > 100 | 1.1 ± 0.1 | (465.0) | (74.0) | –
CC(CCc1ccccc1)NCC(O)c1ccc(O)c(C(N)=O)c1 (centres unmarked) [Labetalol, labetalol] | > 100 | > 100 | 44 ± 9.7 | – | > 100 | (>11.3) | > 100 | > 100 | > 100 | > 100 | 498.1 ± 0.5 | > 100 | > 100 | – | – | –
CC(CCc1ccccc1)NC(C)C(O)c1ccc(O)cc1 (centres unmarked) [Nylidrin, nylidrin] | 3.5 ± 1.6 | 7.2 ± 0.2 | 12.1 ± 1.6 | (156.9) | > 100 | – | 38.8 ± 19.4 | > 100 | > 100 | > 100 | 549.2 ± 0.5 | > 100 | 1.7 ± 0.5 | (332.8) | (76.3) | viral proteins NP, HA and M1 (western blot) [16, 24]: not detected; S.I. (CC50/EC50), A/Seoul/11/1988 (H3N2) (A/Seoul/11/1988 (H3N2) [17]; MDCK cells): (14.3); S.I. (CC50/EC50), A/Puerto Rico/8/1934 (H1N1) ([15]; MDCK cells, listed as nylidrin): 76.3; viability at 20 µM [18]: 80%; CPE-reduction (influenza B strain (Lee)): no benefit
CCC(CC)O[C@@H]1C=C(C(=O)O)C[C@H](N)[C@H]1NC(C)=O [OSV-C, oseltamivir carboxylate] | 0.02 | 0.04 ± 0.01 | < 0.005 | (>58,065) | < 0.005 | (>180,000) | < 0.005 | 0.53 ± 0.16 | 0.8 ± 0.03 | 53.1 ± 25.2 | – | 0.03 ± 0.02 | 0.02 | (>58,065) | (>25,714) | viral proteins NP, HA and M1 (western blot) [16, 24]: not detected; S.I. (CC50/EC50), A/Perth/16/2009 (H3N2) (A/Perth/16/2009 (H3N2) [19]; MDCK cells): (>30,000); S.I. (CC50/EC50), B/Lee/40 (B/Lee/40 [20]): (>1125); S.I. (CC50/EC50), A/Seoul/11/1988 (H3N2) (A/Seoul/11/1988 (H3N2) [17]; MDCK cells): (>180,000); S.I. (CC50/EC50), A/Victoria/361/2011-like (H3N2) ([21]; MDCK cells): (>180,000); S.I. (CC50/EC50), A/Brisbane/10/2007 (H3N2) [22]: (>1714); S.I. (CC50/EC50), B/Brisbane/60/2008 (B/Brisbane/60/2008 [23]; MDCK cells): (>17.0); CC50 at 3 days (in vitro): > 900 µM
NC(=O)c1ncn([C@@H]2O[C@H](CO)[C@@H](O)[C@H]2O)n1 [RBV, ribavirin] | 24.1 ± 0.5 | 18.4 ± 3.4 | 15.7 ± 2.7 | – | 33.4 ± 8.8 | (>57.5) | 10.5 ± 4.2 | 12.6 ± 6.4 | 13.8 ± 0.2 | 25.6 ± 0.3 | > 900 | 33.8 ± 11.6 | 52.5 ± 1.5 | – | – | viral proteins NP, HA and M1 (western blot) [16]: not detected; S.I. (CC50/EC50), A/California/7/2009 (H1N1) [14]: (>17.2); S.I. (CC50/EC50), A/Perth/16/2009 (H3N2) (A/Perth/16/2009 (H3N2) [19]): (>26.6); S.I. (CC50/EC50), B/Lee/40 (B/Lee/40 [20]): (>65.5); S.I. (CC50/EC50), A/Seoul/11/1988 (H3N2) (A/Seoul/11/1988 (H3N2) [17]): (>52.3); S.I. (CC50/EC50), A/Brisbane/59/2007 (H1N1) [4]: (>37.3); S.I. (CC50/EC50), A/Victoria/361/2011-like (H3N2) [21]: (>16.4); S.I. (CC50/EC50), A/Puerto Rico/8/1934 (H1N1) [15]: (>48.9); S.I. (CC50/EC50), A/Brisbane/10/2007 (H3N2) [22]: (>71.4); S.I. (CC50/EC50), B/Brisbane/60/2008 (B/Brisbane/60/2008 [23]): (>35.2)
CC(NCCc1ccc(O)cc1)C(O)c1ccc(O)cc1 (centres unmarked) [Ritodrine, ritodrine] | – | > 100 | > 100 | – | – | – | – | – | > 100 | – | > 900 | – | – | – | – | –

Source: article PMC7290441 (Viruses, 2020)
